From patent US20160199349A1 (priority 2012, published 2016)
Values joined by “and” are separate entries in the source; they are usually repeats but may differ in a detail not shown here. Equal values may be shown once.

How the values were obtained:
[1] = test system: male albino rats (Sprague Dawley); settings: rat, in vivo, ip
rat = assay: animal or person; type: in vivo

Question: What does the source list for `CC(C)Cc1ccc(C(C)C(=O)O)cc1` (stereo not drawn) [ibuprofen]?
Answer: ED25 (95% CI) [1]: 117 mg/kg and 117 (90.1-196) mg/kg; ED50 (rat; Rattus norvegicus, ip, 0.5 h, read-out: ED50 (95% CI)): 139 mg/kg; timepoint of peak effect (rat; rat, in vivo): 30 min p. appl.
